These results are taken from patent US6440935B1, “Inhibition of eucaryotic pathogens and neoplasms and stimulation of fibroblasts and lymphocytes with lytic peptides” (priority 1987, dated 2002).

For series [1], the system named is EL-4 cells. Briefly: EL-4 cytotoxicity by chromium release. Type of series: cell-based. Conditions: 30 minutes, 10^6 EL-4 cells. The protocol: (§1) The EL-4 cells were then incubated for 30 minutes in the presence of various peptides at different concentrations. Cytotoxicity was taken as a percentage of chromium released (measured in the culture supernatant) relative to the chromium released by EL-4 cells lysed by detergent.
(§2) Similar chromium release data were obtained using the same procedure with a 100 μM concentration of peptide, but with EL-4 cell concentrations of 2×10^6, 10^6, and 5×10^5 cells in 0.5 ml medium.
(§3) The chromium release data was also obtained by using the supernatant from unlabeled EL-4 cells cultured for 30 minutes in the presence of 100 μM peptide as medium for […] EL-4 cultured as described above. The percent cytotoxicity calculated as described above was 20.16 for cecropin SB-37, 19.73 for *cecropin SB-37, 41.96 for Shiva 1, and 106.67 for melittin.

The nature of series [2]: EL-4 cytotoxicity by chromium release. The series is classed as cell-based. As to conditions: for cytotoxicity at 30 min, 100 μM: mouse, EL-4 cells. The protocol:
as §1, §2, §3

Series [3] has as its system Saccharomyces cerevisiae. Briefly: Effect of lytic peptides on S. cerevisiae (plate count). Conditions: 1 hour at 37° C., PBS pH 6.8, 500 at 0 μM.
Series [4] concerns T. cruzi intracellular amastigotes in Vero cells. Kind of series: In vitro effect on T. cruzi intracellular amastigotes in Vero cells. Type of series: cell-based, Trypanosoma cruzi. As to conditions: one hour period, relative to no peptide. As for the experimental part:
Vero cells at 10^5 cells/ml in MEM-FBS were mixed with Trypanosoma Cruzi in the trypomastigote stage at 10^5 cells/ml in the same medium at a 1:1 ratio of Vero cells to trypomastigotes. The mixture of Vero cells and trypomastigotes was cultured at 37° C. in a 5% CO2 atmosphere in microscope slide chambers. At 24 hours, cecropin SB-37 was added to the chambers, except for a set of controls, at a final concentration of 100 μM. […]

Series [5] relates to Plasmodium falciparum in human red blood cells. Conditions: 24-hour period, relative to untreated infected red blood cells.
Series [6] concerns mammary carcinoma. Kind of series: In vivo effect on murine mammary carcinoma. Conditions: 1.76 mg (88 mg/kg) daily, three days, injected directly into the carcinoma. Details: species or system BALB/c mouse. As for the experimental part:
One BALB/c mouse was given daily injections of 1.76 mg (88 mg/kg) Shiva 1 in PBS for three consecutive days as described in the foregoing examples.

A short description of series [7]: EL-4 cell viability by trypan blue exclusion. Type of series: cell-based. Conditions: one hour, 95% at 0 μM. As for the experimental part: EL-4 lymphoma cells were suspended in RPMI 1640 at 5,000,000/ml with 500,000 cells per well. Various concentrations of cecropin SB-37 and Shiva 1 were added and the wells incubated at 37° C. in a 5% CO2 atmosphere for one hour. Viability was determined by microscopic observation for trypan blue exclusion.

Series [8] in a line: S. intermedius 19930 viability in lytic peptide/lysozyme. As to conditions: Viability (%), lysozyme at ten times.
The subject of series [9] is Brucella abortus. The series is classed as in vivo, BALB/C mice. Conditions: 0.176 mg/day for 4 days from day 12 post infection; sacrificed day 16; control 8.15 × 10^3.
Series [10] deals with Pseudomonas solanacearum.
The test system of series [11] is Pseudomonas syringae pv. tabaci. Briefly: Plant pathogen LD50 in cecropin SB-37/lysozyme. The series is classed as cell-based. Conditions: incubation at 30° C.
Series [12] has as its system S. intermedius 19930.
For series [13], the system named is Xanthomonas campestris pv. campestris. Kind of series: Plant pathogen LD50 in cecropin SB-37/lysozyme. The series is classed as cell-based. Conditions: incubation at 30° C.
The test system of series [14] is Erwinia caratovora subsp. carotova. Kind of series: Plant pathogen LD50 in cecropin SB-37/lysozyme. The series is classed as cell-based. As to conditions: incubation at 30° C.
The subject of series [15] is Pseudomonas aeruginosa.
In series [16] the test system is eucaryotes. Briefly: Lytic activity, general statements of the description. As to conditions: general statement, no test described.
Setting [17] is: 100 μM, 2 × 10^6 cells per 0.5 ml, read-out: Percent Cytotoxicity.
Where [18] appears, read: supernatant from unlabeled EL-4 cells cultured 30 minutes with 100 μM peptide used as medium for labeled EL-4, read-out: percent cytotoxicity.

Read-outs that look alike come from different tables or passages of the source. Residues, ends and D or L forms follow the SMILES beside them. Bounds are passed on as bounds.

As usually defined, the viability is a per cent measure of how many cells are alive, often set against a control.

Consider `CC[C@H](C)[C@H](NC(=O)CN)C(=O)NCC(=O)N[C@@H](C)C(=O)N[C@H](C(=O)N[C@@H](CC(C)C)C(=O)N[C@@H](CCCCN)C(=O)N[C@H](C(=O)N[C@@H](CC(C)C)C(=O)N[C@H](C(=O)N[C@H](C(=O)NCC(=O)N[C@@H](CC(C)C)C(=O)N1CCC[C@H]1C(=O)N[C@@H](C)C(=O)N[C@@H](CC(C)C)C(=O)N[C@H](C(=O)N[C@@H](CO)C(=O)N[C@@H](Cc1c[nH]c2ccccc12)C(=O)N[C@H](C(=O)N[C@@H](CCCCN)C(=O)N[C@@H](CCCNC(=N)N)C(=O)N[C@@H](CCCCN)C(=O)N[C@@H](CCCNC(=N)N)C(=O)N[C@@H](CCC(N)=O)C(=O)N[C@@H](CCC(N)=O)C(N)=O)[C@@H](C)CC)[C@@H](C)CC)[C@@H](C)O)[C@@H](C)O)C(C)C)C(C)C` [Melittin, reference compound], for which the “Percent Cytotoxicity (chromium release vs detergent-lysed cells)” value (shortened to “Percent Cytotoxicity”) in series [1] (10 μM) came to 109.65%; in [1] (25 μM), 106.65%; in series [1] (50 μM) it was 106.81%; in series [1] (100 μM) it was 102.43%. In addition, the cytotoxicity at 30 min, 100 μM is 105% in series [2] (setting [17]) and 107% in [2] (setting [18]). The figures for the “Plate Count (Thousands)” value in series [3] (5 μM) and in series [3] (50 μM) were 260 Thousands and 0 Thousands, respectively.
As for `CC[C@H](C)[C@H](NC(=O)CNC(=O)[C@H](CCC(N)=O)NC(=O)[C@H](CCCCN)NC(=O)[C@@H](NC(=O)[C@H](CCC(N)=O)NC(=O)[C@H](CCCCN)NC(=O)CNC(=O)[C@@H](NC(=O)[C@H](CCCNC(=N)N)NC(=O)[C@H](CC(=O)O)NC(=O)[C@@H](NC(=O)[C@H](CCCNC(=N)N)NC(=O)[C@H](CCCNC(=N)N)NC(=O)[C@H](Cc1ccccc1)NC(=O)[C@H](CC(C)C)NC(=O)[C@H](CCCNC(=N)N)NC(=O)[C@H](Cc1c[nH]c2ccccc12)NC(=O)[C@H](CCCNC(=N)N)NC(=O)[C@@H]1CCCN1C(=O)[C@@H](N)CCSC)[C@@H](C)CC)C(C)C)[C@@H](C)CC)C(=O)N[C@@H](CC(C)C)C(=O)N[C@@H](CCCNC(=N)N)C(=O)N[C@@H](C)C(=O)NCC(=O)N1CCC[C@H]1C(=O)N[C@@H](C)C(=O)N[C@H](C(=O)N[C@@H](C)C(=O)N[C@@H](CC(C)C)C(=O)N[C@H](C(=O)NCC(=O)N[C@@H](CC(=O)O)C(=O)N[C@@H](C)C(=O)N[C@@H](CCCNC(=N)N)C(=O)N[C@@H](C)C(=O)N[C@H](C(=O)NCC(N)=O)C(C)C)C(C)C)[C@@H](C)CC` [Shiva 1] (H-MPRWRLFRRIDRVGKQIKQGILRAGPAIALVGDARAVG-NH2), the viability is 0%, the viability at 0.01 µM came to 100%, the viability at 0.1 µM came to 69.6% and the viability at 1 µM is 37.9%. For the same compound, the viability at 5 µM was found to be 1.5% and the viability at 7.5 µM was 0.1%. For the same compound, in series [4], the “LD50 (concentration for 50% reduction in number of infected Vero cells)” value is “about 9 μM”. For the same compound, in [5], the “LD50 (concentration for 50% reduction in 3H-hypoxanthine uptake)” value was “about 10 μM”. The “Percent Cytotoxicity” value in series [1] (10 μM) is listed as 0.37%. Moreover, the “Percent Cytotoxicity” value in [1] (25 μM) amounted to 16.7%. Moreover, in [1] (50 μM), the “Percent Cytotoxicity” value is listed as 42.73%. Moreover, the “Percent Cytotoxicity” value in [1] (100 μM) is recorded as 82.35%. For the same compound, in series [2] (setting [17]), the cytotoxicity at 100 µM stood at 84.9%. Further, in series [2] (100 μM, 5 × 10^5 cells per 0.5 ml, read-out: Percent Cytotoxicity), the cytotoxicity at 100 µM was 98.7%. Moreover, in [2] (100 μM, 10^6 cells per 0.5 ml, read-out: Percent Cytotoxicity), the cytotoxicity at 100 µM came out at 89.2%. Besides, in series [2] (setting [18]), the cytotoxicity came to 42%. The “immediate cause of death at autopsy” value in series [6] is on record as “shock”. For the same compound, in series [6] (one mouse), the “outcome following the third injection” value is recorded as “died almost immediately”. In addition, the viability in series [7] (10 μM) amounted to 85%. Also, the viability in series [7] (25 μM) came to 60%. The same compound displayed a viability in series [7] (50 μM) of 50%. In [7] (100 μM), the viability is 10%. Also, the viability at 0.01 µM in [8] (peptide concentration 0.01 μM) is 100%. Also, in [8] (peptide concentration 0.1 μM), the viability at 0.1 µM was determined as 81.8%. In series [8] (peptide concentration 0.5 μM), this compound displayed a viability at 0.5 µM of 65%. The viability at 1 µM in [8] (peptide concentration 1.0 μM) was 42.1%. Besides, the viability at 5 µM in series [8] (peptide concentration 5.0 μM) worked out at 35.2%. In [8] (peptide concentration 10. μM), this compound came in with a viability of 1.2%. In series [8] (peptide concentration 50. μM), the viability came to 0%.
For the compound `CN(C)[C@@H]1C(O)=C(C(N)=O)C(=O)[C@@]2(O)C(O)=C3C(=O)c4c(O)cccc4[C@@](C)(O)[C@H]3C[C@@H]12` [Tetracycline, tetracycline], the “Concentration of Brucella abortus in spleen tissue” value in series [9] is 4.4 × 10^3 Number per gram of spleen.
As for Lysozyme, the LD50 in series [10], in series [11], in [13] and in [14] was over 1000 µM throughout. Moreover, the “Viability (%)” value in series [12] (0.01 µM) is 100%; in [12] (0.1 µM) it was 100%; in series [12] (0.5 µM), 81.3%; in [12] (1 µM), 53%; in [12] (5 µM), 49.5%; in [15], 0.4%. The “Viability (%)” value amounted to 100% in [15] (0.01 µM); 82.2% in series [15] (0.1 µM); 52.1% in series [15] (1 µM); 7.9% in series [15] (5 µM); 0.6% in series [15] (7.5 µM).
cecropin A: the “lytic activity compared with other lytic peptides” value in series [16] was “about as lytically active as cecropin B and SB-37”.
